Assay results as given in PubChem BioAssay (NCI).
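At the GI50, growth is halved. TGI denotes the concentration required for complete inhibition of growth.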

Key:
Assay in all cases: NCI tumour cell line growth inhibition, 384-well format
HOP-92 NSCLC = tested on: HOP-92 NSCLC
UACC-257 melanoma = tested on: UACC-257 melanoma
IGROV1 ovarian = tested on: IGROV1 ovarian
NCI-H522 lung = tested on: NCI-H522 lung
SF-295 CNS = tested on: SF-295 CNS
SNB-75 CNS = tested on: SNB-75 CNS
NCI-H460 NSCLC = tested on: NCI-H460 NSCLC
ACHN renal = tested on: ACHN renal
MDA-MB-231 breast = tested on: MDA-MB-231 breast
KM12 colon = tested on: KM12 colon
A498 renal = tested on: A498 renal
MCF7 breast = tested on: MCF7 breast
HT29 colon = tested on: HT29 colon
NCI-H23 lung = tested on: NCI-H23 lung
RXF 393 renal = tested on: RXF 393 renal
SNB-19 CNS = tested on: SNB-19 CNS
HOP-62 NSCLC = tested on: HOP-62 NSCLC
UACC-62 melanoma = tested on: UACC-62 melanoma
OVCAR-4 ovarian = tested on: OVCAR-4 ovarian
NCI/ADR-RES ovarian = tested on: NCI/ADR-RES ovarian
NCI-H322M lung = tested on: NCI-H322M lung
A549 NSCLC = tested on: A549 NSCLC
EKVX NSCLC = tested on: EKVX NSCLC
SN12C renal = tested on: SN12C renal
OVCAR-8 ovarian = tested on: OVCAR-8 ovarian
RPMI-8226 leukemia = tested on: RPMI-8226 leukemia
SF-539 CNS = tested on: SF-539 CNS

In the case of CCOc1ccccc1N=Nc1c(C)[nH]n(-c2nc(-c3ccccc3)cs2)c1=O, the GI50 (HOP-92 NSCLC) is reported as > 100 µM, the TGI (HOP-92 NSCLC) is reported as > 100 µM and the GI50 (UACC-257 melanoma) is reported as > 100 µM. The TGI (UACC-257 melanoma) was > 100 µM, the GI50 (IGROV1 ovarian) was > 100 µM and the TGI (IGROV1 ovarian) was > 100 µM. For the same compound, the GI50 (NCI-H522 lung) was > 100 µM, the TGI (NCI-H522 lung) was > 100 µM and the GI50 (SF-295 CNS) was > 100 µM. For the same compound, the TGI (SF-295 CNS) was > 100 µM, the GI50 (SNB-75 CNS) was > 100 µM and the TGI (SNB-75 CNS) was > 100 µM. The GI50 (NCI-H460 NSCLC) was > 100 µM, the TGI (NCI-H460 NSCLC) was > 100 µM and the GI50 (ACHN renal) was > 100 µM. The TGI (ACHN renal) was > 100 µM, the GI50 (MDA-MB-231 breast) was > 100 µM and the TGI (MDA-MB-231 breast) was > 100 µM. For the same compound, the GI50 (KM12 colon) was > 100 µM, the TGI (KM12 colon) was > 100 µM and the GI50 (A498 renal) was > 100 µM. The TGI (A498 renal) was > 100 µM, the GI50 (MCF7 breast) was > 100 µM and the TGI (MCF7 breast) was > 100 µM. The GI50 (HT29 colon) was > 100 µM, the TGI (HT29 colon) was > 100 µM and the GI50 (NCI-H23 lung) was > 100 µM. For the same compound, the TGI (NCI-H23 lung) was > 100 µM, the GI50 (RXF 393 renal) was > 100 µM and the TGI (RXF 393 renal) was > 100 µM. For the same compound, the GI50 (SNB-19 CNS) was > 100 µM, the TGI (SNB-19 CNS) was > 100 µM and the GI50 (HOP-62 NSCLC) was > 100 µM. For the same compound, the TGI (HOP-62 NSCLC) was > 100 µM, the GI50 (UACC-62 melanoma) was > 100 µM and the TGI (UACC-62 melanoma) was > 100 µM. For the same compound, the GI50 (OVCAR-4 ovarian) was > 100 µM, the TGI (OVCAR-4 ovarian) was > 100 µM and the GI50 (NCI/ADR-RES ovarian) was > 100 µM. For the same compound, the TGI (NCI/ADR-RES ovarian) was > 100 µM, the GI50 (NCI-H322M lung) was > 100 µM and the TGI (NCI-H322M lung) was > 100 µM. For the same compound, the GI50 (A549 NSCLC) was > 100 µM, the TGI (A549 NSCLC) was > 100 µM and the GI50 (EKVX NSCLC) was > 100 µM. For the same compound, the TGI (EKVX NSCLC) was > 100 µM, the GI50 (SN12C renal) was > 100 µM and the TGI (SN12C renal) was > 100 µM. For the same compound, the GI50 (OVCAR-8 ovarian) was > 100 µM, the TGI (OVCAR-8 ovarian) was > 100 µM and the GI50 (RPMI-8226 leukemia) was 53.9 µM. The TGI (RPMI-8226 leukemia) was > 100 µM, the GI50 (SF-539 CNS) was > 100 µM and the TGI (SF-539 CNS) was > 100 µM.
